{"source": "patent US9351963B2", "about": "“Defensin-like molecules as novel antimicrobial agents” (UNIVERSITY OF MARYLAND, BALTIMORE, priority 2010, dated 2016)", "key": {"[1]": {"test_system": "Escherichia coli ATCC 25922", "test": "96-well turbidimetric antibacterial killing assay, E. coli", "assay_type": "cell-based", "conditions": "E. coli", "method": "The antibacterial activity of defensin mimetics against Staphylococcus aureus ATCC 29213 and Escherichia coli 25922 was carried out in a 96-well turbidimetric assay essentially as described (Ericksen, B., Wu, Z., Lu, W., and Lehrer, R. I. (2005) Antimicrob Agents Chemother 49, 269-275) with the following modifications: compounds were exposed for 30 min to […] prior to addition of […] in 10 mM phosphate buffer containing 5% DMSO. Bacterial growth was monitored for 12 hours and data were analyzed as described (Ericksen, et al). Determination of MICs was performed by Micromyx, LLC (Kalamazoo, Mich.) according to CLSI standards (CLSI. (2009) Methods for Dilution Antimicrobial Susceptibility Tests for Bacteria That Grow Aerobically; Approved Standard—Eighth Edition.)\nThe inventors have previously reported on the antibacterial activity of HNP1 and all of its structurally uncompromised single alanine mutants against S. aureus (Wei, G., Pazgier, M., de Leeuw, E., Rajabi, M., Li, J., Zou, G., Jung, G., Yuan, W., Lu, W. Y., Lehrer, R. I., and Lu, W. J Biol Chem 285, 16275-16285). […] If these residues are indeed important for Lipid II binding, one would expect that replacement by alanine will not affect killing of Gram-negative bacteria. […] In particular, FIG. 12 depicts killing of E. coli by HNP-1 Lipid II single alanine mutants. Survival curves of E. coli ATCC 25922 exposed to HNP-1 or HNP-1 single alanine mutants at concentrations varying two-fold from […]. Bacteria were exposed to defensin peptides for 120 min. Each curve is the mean of two separate experiments (±S.D.). Points scored as zero survival could not be plotted."}, "[2]": {"test": "NMR interaction with Lipid II", "assay_type": "binding", "conditions": "0.15 mM Lipid II + 0.15 mM compound, d6-DMSO, 25° C.", "method": "The NMR samples included 0.15 mM Lipid II, 0.15 mM BAS00127538 compound, or 0.15 mM Lipid II+0.15 mM BAS00127538 compound. All samples were dissolved in 90% double distilled H20+10% DMSO, incubated for 30 minutes, freeze-dried, and then dissolved in 300 uL of d6-DMSO. NMR experiments were carried out at 25° C. on an 800 MHz Bruker Avance NMR spectrometer (800.27 MHz for protons) equipped with a pulse-field gradient unit, four frequency channels, and a triple resonance TXI cryoprobe (Bruker Biospin, Billerica, Mass.). 1D proton experiments were collected to probe for chemical shift changes and 2D TOCSY (30, 60, and 90 msec spinlock times), 2D NOESY (150 and 300 msec mixing times), and natural abundance ^13C-HSQC experiments were collected to determine proton and carbon chemical shift assignments.\nTo confirm the binding of defensins mimetic BAS00127538 to Lipid II the inventors observed by SPR, their interaction was studied directly by NMR (FIG. 7). Specifically, the inventors used 1D proton NMR spectra to determine if any chemical shift changes occur when the compound was added to 3-Lipid II. […] This Figure depicts an analysis of 2D TOCSY spectra collected at 800 MHz of the aromatic region of compound BAS00127538 alone (black) overlaid with spectra of compound bound to Lipid II (red). […]"}}, "data": [{"compound": "CN1/C(=C/C=C/c2cc(-c3ccccc3)cc(-c3ccccc3)[o+]2)C(C)(C)c2ccccc21", "note": "[BAS00127538, 2,4-diphenyl-6-[(1E)-3-[(2E)-1,3,3-trimethyl-2,3-dihydro-1H-indol-2-ylidene]prop-1-en-1-yl]-1$1^4-pyran-1-ylium]", "values": [{"measurement": "Concentration at which compound was 100% bactericidal against E. coli", "setting": "[1]", "result": 7.8, "unit": "µM"}, {"measurement": "Interaction with Lipid II by NMR analysis", "setting": "[2]", "result": "found to interact"}]}]}
